From patent US20240271096A1, “EFFICIENT DIFFERENTIATION OF SECOND HEART FIELD CARDIAC PROGENITOR CELLS AND RIGHT VENTRICLE CARDIOMYOCYTES FROM HUMAN PLURIPOTENT STEM CELLS” (Wisconsin Alumni Research Foundation, priority 2023, published 2024) come the findings set out here.

In test [1] the test system is HES3-TBX5-TdTomato^+/W/NKX2-5^eGFP/W reporter hESC line. Kind of test: NKX2-5-eGFP and TBX5-tdTomato reporter expression during GiWi cardiac differentiation (fluorescence microscopy). Format: cell-based, human. An excerpt:
Human iPSCs (hiPSCs) were established from a healthy donor (FIG. 1), 201B7 hiPSCs (RIKEN BRC, Tsukuba, Japan), and HES3-TBX5-TdTomato^+/W/NKX2-5^eGFP/Wreporter hESCs that were a kind gift from Dr. Reza Ardehali, UCLA Geffen School of Medicine (Pezhouman et al., 2022, Cardiovasc Res. 118(3):828-43), were used. HiPSCs were maintained on iMatrix-511 (Matrixome, Osaka, Japan)-coated 6-well plates (Corning, Glendale, Arizona, United States) in StemFit AK02N (Ajinomoto, Tokyo, Japan) and passaged every 7 days.
HESCs were maintained on Matrigel Growth Factor Reduced Basement Membrane Matrix (Corning)-coated 6-well plates (Corning) in StemFlex Medium (Thermo Fisher Scientific, Waltham, MA, United States) and passaged every 3-4 days. StemPro Accutase Cell Dissociation Reagent (Thermo Fisher Scientific) was used for dissociation. 10 μmol/L Y27632 (Tocris, Bristol, United Kingdom) was used for improvement of cell survival for 24 hours after seeding. Mycoplasma tests were performed for all the cell culture in this study.
For LV-cardiomyocyte differentiation, cardiac differentiation was performed according to the protocol published by (Lian et al., 2012, Proc Natl Acad Sci USA 109:E1848-57). Cells were dissociated with StemPro Accutase Cell Dissociation Reagent at 37° C. for 5 minutes. HESCs were seeded on Matrigel-coated 24-well plates (Corning) in StemFlex Medium supplemented with 10 μmol/L Y-27632. HiPSCs were seeded on iMatrix-511-coated 12-well plates (Corning) in StemFit AK02N supplemented with 10 μmol/L Y-27632 at seeding densities of 1×10^5 cells/cm^2 for hESCs and 1.25-2.5×10^4 cells/cm^2 for hiPSCs. Cells were cultured for 4 days until the start of differentiation (day 0). On day 0, the medium was changed to RPMI 1640 Medium (Thermo Fisher Scientific) supplemented with B-27 Supplement minus insulin (Thermo Fisher Scientific) (RPMI/B27-insulin) or B-27 Supplement with insulin (Thermo Fisher Scientific), and 12 μmol/L CHIR 99021 (SelleckChem, Houston, TX, United States), and the cells incubated in this medium for 24 h (day 1). On day 1, the medium was changed to RPMI/B27-insulin. To enhance cardiac differentiation, 50 μmol/L 2-O-α-D-glucopyranosyl-L-ascorbic acid (Tokyo Chemical Industry, Tokyo, Japan) was added on day 1 only for hiPSCs (Burridge et al., 2014 Nat Methods, 11:855-860). On day 3, the medium was changed to RPMI/B27-insulin supplemented with 5 μmol/L IWP2 (SelleckChem) and on day 5, the medium was changed to 1 ml RPMI/B27-insulin. From day 7, the cells were cultured with RPMI/B27-insulin, and the cells were fed every other day. On day 12, the cells were washed with PBS (Thermo Fisher Scientific) and cultured with DMEM or RPMI, no glucose supplemented with 8 mmol/L L-(+)-Lactic acid (Merck) (Tohyama et al., 2013 Cell Stem Cell, 12:127-37). The medium was changed every other day until day 17. After day 17, the cells were cultured with RPMI/B27 and fed every 2 to 3 days. For long-term culture, the cells were dissociated with TrypLE™ Select Enzyme (10×) (Thermo Fisher Scientific) at 37° C. for 15-20 minutes and seeded on Matrigel- or iMatrix-511-coated plates. For RV-cardiomyocyte induction, Dorsomorphin 2HCl (SelleckChem), dorsomorphin homologue 1 (DMH1) (SelleckChem), or 3 μg/L insulin were used from day 0 to day 1. For FIG. 15A and FIG. 15B, dorsomorphin (DM) or 3 μg/L insulin were added on day 0 (for 24 hours), 1, 3, or 5 (for 48 hours).

In test [2] the test system is human induced pluripotent stem cell-derived cardiac progenitor cells. Briefly: Quantitative PCR of heart field and cardiac markers in differentiating hiPSCs (day 0 to day 7). The note with it: B-27 containing insulin day 0 to day 1; qPCR day 7; vs control cells. Format: cell-based. As to the method: For LV-cardiomyocyte differentiation, cardiac differentiation was performed according to the protocol published by (Lian et al., 2012, Proc Natl Acad Sci USA 109:[…]-57). Cells were dissociated with StemPro Accutase Cell Dissociation Reagent at 37° C. for 5 minutes. HESCs were seeded on Matrigel-coated 24-well plates (Corning) in StemFlex Medium supplemented with 10 μmol/[…] were seeded on iMatrix-511-coated 12-well plates (Corning) in StemFit A[…] supplemented with 10 μmol/[…] at seeding densities of 1×10^5 cells/cm^2 for hESCs and 1.25-2.5×10^4 cells/cm^2 for hiPSCs. Cells were cultured for 4 days until the start of differentiation (day 0). On day 0, the medium was changed to RPMI 1640 Medium (Thermo Fisher Scientific) supplemented with B-27 Supplement minus insulin (Thermo Fisher Scientific) (RPMI/B27-insulin) or B-27 Supplement with insulin (Thermo Fisher Scientific), and 12 μmol/L CHIR 99021 (SelleckChem, Houston, TX, United States), and the cells incubated in this medium for 24 h (day 1). On day 1, the medium was changed to RPMI/B27-insulin. […] PowerUpTM SYBR Green Master Mix (Thermo Fisher Scientific) and QuantStudio 1 (Thermo Fisher Scientific) were used for quantitative PCR (q-PCR), wherein q-PCR data were processed using the ΔΔCT method. […] Data were analyzed with the web-based tool of GeneGlobe Data Analysis Center (Qiagen).
In general terms: In qPCR the cycle at which signal appears reflects the starting amount.

Setting [3] is: 3 μg/mL insulin on day 0, read day 13.
[4] abbreviates: B-27 supplement containing insulin on differentiation day 0, read day 7 (cardiac progenitor stage).
The mark [5] stands for this setting: B-27 supplement containing insulin on differentiation day 0, read day 14 (cardiomyocyte stage).

As for insulin, in test [1] (setting [3]), the Nkx2.5-eGFP expression result is listed as “strong” and the TBX5-tdTomato expression result is recorded as “without TBX5-tdTomato expression”. In addition, the “eGFP and TBX5-tdTomato expression” value in test [1] (10 μg/mL insulin on day 0, read day 13) is listed as “very low”. In test [1] (0.1, 0.3, 1, and 3 μg/mL insulin on day 0, read day 13), the “TBX5-tdTomato expression, dose dependence” value is on record as “decreased with increasing doses”. Further, in test [1] (setting [4]), the NKX2-5-eGFP expression entry is recorded as “low” and the TBX5-tdTomato expression entry is reported as “low”. In test [1] (setting [5]), the NKX2-5-eGFP expression result is listed as “high” and the TBX5-tdTomato expression entry is “low”. In test [2], the “expression levels of FHF markers (TBX5 and HCN4)” value was “lower expression levels”; the “mRNA expression levels of SHF markers (ISL1 and CXCR4)” value was “higher mRNA expression levels”.
